Experimental findings from paper PMC11510069, “Anti-Diabetic Activities and Molecular Docking Studies of Aryl-Substituted Pyrazolo[3,4-b]pyridine Derivatives Synthesized via Suzuki Cross-Coupling Reaction” (Pharmaceuticals, 2024) are described below.

By IC50 is commonly meant the concentration that inhibits the measured activity by half. The melting point is the temperature, or range, at which the solid turns liquid.

Like-named read-outs stand apart in the source and are kept apart here.

The target of data set [1] is T1, α-amylase (Hi media RM 638) enzyme (Aspergillus oryzae, UniProt P0C1B3).
T1 construct: purchased Hi media RM 638
The experiment in a line: biochemical. How it is done: The anti-diabetic activity of all the prepared derivatives (6a–i) and (7a–i) was evaluated following the method reported in refs. [31, 32]. In brief, to check the anti-diabetic activity of each compound, […] different concentrations, ranging from 250 to 50 μg, with a difference of 50 μg, were used and each concentration was treated with 200 μL of α-amylase (Hi media RM 638) enzyme to determine the anti-diabetic activity in triplicate at each concentration. Here, 0.6 mL of each sample at each concentration was mixed with 0.6 mL of buffered solution (0.03 M sodium phosphate buffer), which was subsequently incubated for 16 min at 37 °C. Afterwards, 1 mL of starch solution was added to the above solutions. In the next step, 1 mL of color-imparting reagent, […] (DNSA), was poured into each solution and the solution was left for 6 min in boiling water. Finally, the solutions were made up to 20 mL with distilled water. […] The absorbance value taken at 670 nm was used to check the performance of the newly obtained derivatives. The following Equation (1) was used to determine the percentage inhibition of each drug at the different concentrations. (1) %A=Acontrol−Asample/Acontrol×100 where %A, Acontrol and Asample are the percentage inhibition, absorbance blank and absorbance of sample, respectively.
The concentration of pyrazolo[3,4-b]pyridine derivative needed to inhibit the α-amylase activity by 50% is known as the IC50 value and is calculated from the plot of the percent inhibition against the log inhibitor concentration (i.e., synthesized drugs). A non-linear regression analysis on Graph Pad Prism 8.0.2. was performed on the plots to extract the IC50 value for each compound.

Where [2] appears, read: Table 3, anti-diabetic, hydrazide derivatives, read-out: IC50 Value.
Setting [3] is: Figure 6, read-out: IC50 (α-amylase inhibition).
The mark [4] stands for this setting: Table 2, in vitro anti-diabetic, ester derivatives, read-out: IC50 Value.

As for `Cc1nn(-c2ccccc2)c2nc(C(=O)NN)cc(-c3ccc(-c4cccc5c4OCO5)s3)c12` [Compound 7c, 4-(5-(Benzo[d][1,3]dioxol-4-yl)thiophen-2-yl)-3-methyl-1-phenyl-1H-pyrazolo[3,4-b]pyridine-6-carbohydrazide], the melting point stood at 276 °C. Moreover, the IC50 in data set [1] (setting [2]) turned out to be 5.17 µM. In the case of `Cc1nn(-c2ccccc2)c2nc(C(=O)NN)cc(-c3ccc(Br)s3)c12` [Compound 5, 4-(5-Bromothiophen-2-yl)-3-methyl-1-phenyl-1H-pyrazolo[3,4-b]pyridine-6-carbohydrazide], the melting point is 265 °C. Further, the IC50 in data set [1] (setting [2]) came out at 7.91 µM. For `CCOC(=O)c1cc(-c2ccc(-c3cccc(F)c3F)s2)c2c(C)nn(-c3ccccc3)c2n1` [Compound 6g, Ethyl 4-(5-(2,3-Difluorophenyl)thiophen-2-yl)-3-methyl-1-phenyl-1H-pyrazolo[3,4-b]pyridine-6-carboxylate], the melting point came to 170.3 °C. Besides, the IC50 in data set [1] (setting [3]) is 5.2 µM. For the same compound, the IC50 in data set [1] (setting [4]) is 5.56 µM. In turn, `COc1cc(OC)cc(-c2ccc(-c3cc(C(=O)NN)nc4c3c(C)nn4-c3ccccc3)s2)c1` [Compound 7d, 4-(5-(3,5-Dimethoxyphenyl)thiophen-2-yl)-3-methyl-1-phenyl-1H-pyrazolo[3,4-b]pyridine-6-carbohydrazide] came in with a melting point of 249 °C. Moreover, the IC50 in data set [1] (setting [2]) was determined as 5.12 µM. As to `Cc1nn(-c2ccccc2)c2nc(C(=O)NN)cc(-c3ccc(-c4cccc(C(F)(F)F)c4)s3)c12` [Compound 7h, 3-Methyl-1-phenyl-4-(5-(3-(trifluoromethyl)phenyl)thiophen-2-yl)-1H-pyrazolo[3,4-b]pyridine-6-carbohydrazide], the IC50 turned out to be 6.19 µM in data set [1] (setting [3]) and 5.19 µM in data set [1] (setting [2]). On to `CCOC(=O)c1cc(-c2ccc(Br)s2)c2c(C)nn(-c3ccccc3)c2n1` [Compound 4, Ethyl 4-(5-Bromothiophen-2-yl)-3-methyl-1-phenyl-1H-pyrazolo[3,4-b]pyridine-6-carboxylate], for which the melting point is 203 to 205 °C. For the same compound, in data set [1] (setting [4]), the IC50 was 7.26 µM. On to `CCOC(=O)c1cc(-c2ccc(-c3cccc(C(C)(C)C)c3)s2)c2c(C)nn(-c3ccccc3)c2n1` [Compound 6f, Ethyl 4-(5-(3-(Tert-butyl)phenyl)thiophen-2-yl)-3-methyl-1-phenyl-1H-pyrazolo[3,4-b]pyridine-6-carboxylate], for which the IC50 was determined as 58.7 µM in data set [1] (setting [3]) and 58.6 µM in data set [1] (setting [4]). For the compound `Cc1nn(-c2ccccc2)c2nc(C(=O)NN)cc(-c3ccc(-c4cccc(C(C)(C)C)c4)s3)c12` [Compound 7f, 4-(5-(3-(Tert-butyl)phenyl)thiophen-2-yl)-3-methyl-1-phenyl-1H-pyrazolo[3,4-b]pyridine-6-carbohydrazide], the IC50 in data set [1] (setting [2]) turned out to be 5.1 µM.

As for `CCOC(=O)c1cc(-c2ccc(-c3cccc(C(F)(F)F)c3)s2)c2c(C)nn(-c3ccccc3)c2n1` [Compound 6h, Ethyl 3-Methyl-1-phenyl-4-(5-(3-(trifluoromethyl)phenyl)thiophene-2-yl)-1H-pyrazolo[3,4-b]pyridine-6-carboxylate], the melting point came out at 149.5 °C. In addition, the IC50 in data set [1] (setting [3]) worked out at 5.56 µM. Further, the IC50 in data set [1] (setting [4]) came to 5.2 µM.

Compound `CCOC(=O)c1cc(-c2ccc(-c3cccs3)s2)c2c(C)nn(-c3ccccc3)c2n1` [Compound 6a, Ethyl 4-([2,2′-Bithiophen]-5-yl)-3-methyl-1-phenyl-1H-pyrazolo[3,4-b]pyridine-6-carboxylate] gave a melting point of 154 to 157 °C. In data set [1] (setting [4]), the IC50 worked out at 8.38 µM.

As for `Cc1nn(-c2ccccc2)c2nc(C(=O)NN)cc(-c3ccc(-c4cccs4)s3)c12` [Compound 7a, 4-([2,2′-Bithiophen]-5-yl)-3-methyl-1-phenyl-1H-pyrazolo[3,4-b]pyridine-6-carbohydrazide], the melting point came out at 255 °C. Further, in data set [1] (setting [2]), the IC50 stood at 5.21 µM. On to `Cc1ccc(-c2ccc(-c3cc(C(=O)NN)nc4c3c(C)nn4-c3ccccc3)s2)c(C)c1` [Compound 7e, 4-(5-(2,4-Dimethylphenyl)thiophen-2-yl)-3-methyl-1-phenyl-1H-pyrazolo[3,4-b]pyridine-6-carbohydrazide], for which the IC50 in data set [1] (setting [2]) is 8.94 µM. `Cc1nn(-c2ccccc2)c2nc(C(=O)NN)cc(-c3ccc(-c4ccc(Cl)s4)s3)c12` [Compound 7i, 4-(5′-Chloro-[2,2′-bithiophen]-5-yl)-3-methyl-1-phenyl-1H-pyrazolo[3,4-b]pyridine-6-carbohydrazide] registered a melting point of 270 °C. The IC50 in data set [1] (setting [2]) was 8.45 µM. For the compound `Cc1nn(-c2ccccc2)c2nc(C(=O)NN)cc(-c3ccc(-c4ccccc4)s3)c12` [Compound 7b, 3-Methyl-1-phenyl-4-(5-phenylthiophen-2-yl)-1H-pyrazolo[3,4-b]pyridine-6-carbohydrazide], the IC50 in data set [1] (setting [2]) came to 5.18 µM. `CCOC(=O)c1cc(-c2ccc(-c3cccc4c3OCO4)s2)c2c(C)nn(-c3ccccc3)c2n1` [Compound 6c, Ethyl 4-(5-(Benzo[d][1,3]dioxol-4-yl)thiophen-2-yl)-3-methyl-1-phenyl-1H-pyrazolo[3,4-b]pyridine-6-carboxylate] displayed a melting point of 127 °C. The IC50 in data set [1] (setting [4]) came out at 5.15 µM. On the same counts, the results for `CCOC(=O)c1cc(-c2ccc(-c3ccc(Cl)s3)s2)c2c(C)nn(-c3ccccc3)c2n1` [Compound 6i, Ethyl 4-(5′-Chloro-[2,2′-bithiophen]-5-yl)-3-methyl-1-phenyl-1H-pyrazolo[3,4-b]pyridine-6-carboxylate] are 165 °C and 7.4 µM. The corresponding values for `CCOC(=O)c1cc(-c2ccc(-c3cc(OC)cc(OC)c3)s2)c2c(C)nn(-c3ccccc3)c2n1` [Compound 6d, Ethyl 4-(5-(3,5-Dimethoxyphenyl)thiophene-2-yl)-3-methyl-1-phenyl-1H-pyrazolo[3,4-b]pyridine-6-carboxylate] are 147.5 °C and 7.06 µM.

As for “Ethyl 4-(5-(3,5-Dimethylphenyl)thiophen-2-yl)-3-methyl-1-phenyl-1H-pyrazolo[3,4-b]pyridine-6-carboxylate [Compound 6e]”, the concentration for half-maximal inhibition (IC50) in data set [1] (setting [4]) is 9.01 µM. Regarding `Cc1nn(-c2ccccc2)c2nc(C(=O)NN)cc(-c3ccc(-c4cccc(F)c4F)s3)c12` [Compound 7g, 4-(5-(2,3-Fluorophenyl)thiophen-2-yl)-3-methyl-1-phenyl-1H-pyrazolo[3,4-b]pyridine-6-carbohydrazide], the melting point was 275 °C. Further, the IC50 in data set [1] (setting [3]) is 5.16 µM. Also, in data set [1] (setting [2]), the half-maximal inhibitory concentration (IC50) stood at 5.15 µM. As for `CCOC(=O)c1cc(-c2ccc(-c3ccccc3)s2)c2c(C)nn(-c3ccccc3)c2n1` [Compound 6b, Ethyl 3-Methyl-1-phenyl-4-(5-phenylthiophen-2-yl)-1H-pyrazolo[3,4-b]pyridine-6-carboxylate], the IC50 in data set [1] (setting [4]) was 5.14 µM.
